Experimental data taken from ChEMBL document CHEMBL1155632, “Sesquiterpenes from the basidiomycete Omphalotus illudens” (J Nat Prod, 2000).
Activity calls are given as the source filed them. No cut-off for these calls is given here.

Assays:
[1] = test system: Bacillus subtilis; assay: Antibacterial activity against Bacillus subtilis ATCC 6633 at 10 ug/disk; format: functional, organism-based
[2] = test system: Escherichia coli; assay: Genotoxicity against Escherichia coli PQ37 at 50 ug/disk; format: toxicity, organism-based
[3] = test system: Staphylococcus aureus; assay: Antibacterial activity against Staphylococcus aureus ATCC 29213; format: functional, organism-based
[4] = test system: Pseudomonas aeruginosa; assay: Antibacterial activity against Pseudomonas aeruginosa ATCC 27853; format: functional, organism-based
[5] = test system: Candida albicans; assay: Antifungal activity against Candida albicans ATCC 32354; format: functional, organism-based

SMILES | Activity [1] | Activity [2] | Activity [3] | Activity [4] | Activity [5]
CC1(C)C[C@H]2[C@@H](CC[C@@]2(C)O)[C@]2(C)CC2[C@H]1OC(=O)c1cc([N+](=O)[O-])cc([N+](=O)[O-])c1 (stereo not given in full) | inactive | Not Active | inactive | inactive | inactive
C/C(CO)=C1\[C@@H](O)C[C@]1(C)[C@H]1CC(C)(C)C[C@@H]1O | inactive | Not Active | inactive | inactive | inactive
C/C(C=O)=C1\C(=O)C[C@]1(C)[C@H]1CC(C)(C)CC1=O | inactive | Not Active | inactive | inactive | inactive
C/C(C=O)=C1\[C@@H](O)C[C@]1(C)[C@H]1CC(C)(C)C[C@@H]1O [ILLUDOSIN] | Active | Active | inactive | inactive | inactive
